Measured values from patent US7884097B2, “Methods and compositions comprising diamines as new anti-tubercular therapeutics” (Sequella, Inc., priority 2003, dated 2011).
In brackets after ≈: the same amount, converted by molar mass. Entries after “also recorded” stand apart in the source; their conditions may differ. Where two headings read alike, the source gives them in different places.

How the values were obtained:
H37Rv strain of Mtb = experiment: microbe, parasite or virus in culture; assay type: cell-based, M. tuberculosis
Vero monkey kidney cells = experiment: In vitro toxicity, MTS assay in Vero cells; assay type: cell-based; conditions: for SI (selectivity index, ratio of IC50:MIC): IC50 Vero cells : MIC
Procedure: Cytotoxicity The Vero cell line (ATCC CCL-8 1) was seeded overnight at 5×10^4 cells per well in 96-well plates at 37° C. and 5% CO2 in EMEM with essential amino acids and glutamine (BioFluids) supplemented with 10% heat-inactivated fetal bovine serum (FBS). Cells were exposed to dilutions of experimental and control drugs in triplicate for 72 hr, with each compound at a range of concentrations from 15-200 μM. Chlorpromazine (Sigma) was run as a control at the same concentrations. CellTiter 96 AQueous Assay (Promega) was used for determination of Vero cell viability. Briefly, a solution of MTS salt (3-(4,5-dimethylthiazol-2-yl)-5-(3-carboxymethoxyphenyl)-2-(4-sulfophenyl)-2H-tetrazolium) and phenazine methosulfate was added to each well and plates were incubated for 2 hr at 37° C. and 5% CO2. Absorbance of each well was read using BioRad microplate reader at 490 nm. Viability (absorbance) of cells in drug-exposed wells was compared to those in drug-free control wells, and a curve relating cell viability to drug concentration was created.

M. tuberculosis = conditions: background statement; cited from earlier work
M. tuberculosis H37Rv [1] = experiment: Rapid (3 wk) murine model of TB, body weight loss; assay type: in vivo, mice; conditions: for prevention of body weight loss and mortality: mice iv 10^6 CFU, test drugs 10 mg/kg daily by gavage for 10 days, INH 25 or 2.5 mg/kg; for loss of initial body weight: by day 21 following challenge, 10 mg/kg
M. tuberculosis H37Rv [2] = experiment: Murine model of chronic TB, CFU in lung and spleen; assay type: in vivo, mice; conditions: for activity against M. tuberculosis in vivo: mice, two models (rapid and chronic)
HepG2 cell line = experiment: In vitro cytotoxicity, MTS assay in HepG2 cell line; assay type: cell-based; conditions: Homo sapiens, HepG2 cells
[3] = test system: M. tuberculosis in TB-infected mouse macrophage RAW 264.7 cells; experiment: Efficacy in TB-infected macrophages, bioluminescence reporter assay; assay type: cell-based; conditions: for efficacy in macrophages compared to standard drugs (words): RAW 264.7, treated 6 days, 4 timepoints, five concentrations; for intracellular activity compared to EMB and INH: RAW 264.7, 7 days, day 7 readout
[4] = test system: recombinant mycobacteria containing a promoter fusion of luciferase to Rv0341; assay type: cell-based, M. tuberculosis; conditions: active = exceeds untreated control by 1.5 times
[5] = list of preferred compounds (FIG. 20)
[6] = cytotoxicity, list of preferred compounds (FIG. 20), read-out: IC50
[7] = Mycobacterium tuberculosis, H37RV, list of preferred compounds (FIG. 20), read-out: MIC
[8] = Primates, Vero, cytotoxicity, list of preferred compounds (FIG. 20), read-out: IC50
[9] = Mycobacterium tuberculosis, H37RV, Examples 4 and 5 and screening summary, read-out: MIC
[10] = Mycobacterium tuberculosis, H37RV, read-out: MIC

CC(C)=CCC/C(C)=C/CNCCCN1CCCCC1C (stereo not drawn) [#711, 1-(N-Geranyl)-3-Aminopropylpipecoline]
MIC (H37Rv strain of Mtb; [5]): 6.25 µM (≈ 1.83 µg/mL)

CC1CCCCN1CCCNCc1ccc(C(F)(F)F)cc1 (stereo not drawn) [#712, 1-(N-(4-Trifluorobenzyl)-3-Aminopropyl)pipecoline]
MIC (H37Rv strain of Mtb; [5]): 12.5 µM (≈ 3.93 µg/mL)

Fc1ccccc1N1CCN(C2CCC3CCCCC3C2)CC1 (stereo not drawn) [#765, N-(2-Fluorophenyl)-N′-(2-decalone)piperazine]
IC50 (Vero monkey kidney cells; [6]): 70 µM | MIC (H37Rv strain of Mtb): 6.25 µM (≈ 1.98 µg/mL)

CCOc1ccccc1CN1CCN(c2ccccc2F)CC1 [#766, N-(2-Fluorophenyl)-N′-(2-ethoxybenzyl)piperazine]
SI (selectivity index, ratio of IC50:MIC) (Vero monkey kidney cells): 6.08 | IC50 (Vero monkey kidney cells; Primates, Vero): 76 µM | MIC (H37Rv strain of Mtb; [7]): 12.5 µM (≈ 3.93 µg/mL)

c1ccc(CN2CCN(C3C4CC5CC(C4)CC3C5)CC2)cc1 (stereo not drawn) [#785, N-Benzyl-N′-2-Adamantylpiperazine]
SI (selectivity index, ratio of IC50:MIC) (Vero monkey kidney cells): 7.76 | IC50 (Vero monkey kidney cells; [8]): 97 µM | MIC (H37Rv strain of Mtb; [7]): 12.5 µM (≈ 3.88 µg/mL)

c1ccc(CN2CCN(C3CCC4CCCCC4C3)CC2)cc1 (stereo not drawn) [#787, N-Benzyl-N′-2-Decalonepiperazine]
IC50 (Vero monkey kidney cells; [6]): 70 µM | MIC (H37Rv strain of Mtb; [5]): 12.5 µM (≈ 3.91 µg/mL)

CC[C@@H](CO)NCCN[C@@H](CC)CO [EMB, Ethambutol, reference compound]
MIC (H37Rv strain of Mtb; [9]): 12.5 µM (≈ 2.55 µg/mL) | Minimum Inhibition Concentration (MIC) (M. tuberculosis): about 5 μg/ml

NNC(=O)c1ccncc1 [INH, Isoniazid, reference compound]
prevention of body weight loss and mortality (M. tuberculosis H37Rv [1]): did not show any signs of body loss | MIC (H37Rv strain of Mtb; [9]): 1 µM (≈ 0.137 µg/mL)

C1CN(C2C3CC4CC(C3)CC2C4)CCN(C2C3CC4CC(C3)CC2C4)C1 (stereo not drawn) [SQ775, N,N′-Bis(2-Adamantane)homopiperazine]
activity against M. tuberculosis in vivo (M. tuberculosis H37Rv [2]): promising activity against M.tb in vivo; also recorded: efficacious | IC50 (HepG2 cell line): 132 µM | loss of initial body weight (M. tuberculosis H37Rv [1]): 4% | prevention of body weight loss and mortality (M. tuberculosis H37Rv [1]): prevented body weight loss and delayed mortality | mortality in the group (M. tuberculosis H37Rv [1]; one week after chemotherapy withdrawn, 6 mice): 50% | loss of initial body weight of mice that remained alive (M. tuberculosis H37Rv [1]; ten days later, after chemotherapy withdrawal, 3 mice): about 20% | SI (selectivity index, ratio of IC50:MIC) (Vero monkey kidney cells): 16.92 | IC50 (Vero monkey kidney cells; [8]): 132 µM | MIC (H37Rv strain of Mtb; [9]): 6.25 µM (≈ 2.3 µg/mL) | MIC (H37Rv strain of Mtb; [7]): 7.8 µM (≈ 2.88 µg/mL) | MIC (H37Rv strain of Mtb; [10]): 7.8 µM (≈ 2.88 µg/mL) | efficacy in macrophages compared to standard drugs (words) ([3]; listed as 775): as effective as isoniazid | efficacy in macrophages compared to standard drugs (words) ([3]; listed as #775): equal or superior to ethambutol | inhibition of bacterial growth ([3]; intracellular, RAW 264.7, day 7, concentration 2×MIC): 99%

C1CCCC(N2CCCN(C3CCCCCCC3)CC2)CCC1 [SQ777]
IC50 (HepG2 cell line): 74 µM | MIC (H37Rv strain of Mtb; [10]): 7.8 µM (≈ 2.5 µg/mL)

C1CCC2CC(N3CCCN(C4CCC5CCCCC5C4)CC3)CCC2C1 (stereo not drawn) [SQ778, N,N′-Bis(2-Decalone)homopiperazine]
IC50 (HepG2 cell line): 54 µM | SI (selectivity index, ratio of IC50:MIC) (Vero monkey kidney cells): 6.92 | IC50 (Vero monkey kidney cells; [8]): 54 µM | MIC (H37Rv strain of Mtb; [7]): 7.8 µM (≈ 2.91 µg/mL) | MIC (H37Rv strain of Mtb; [10]): 7.8 µM (≈ 2.91 µg/mL)

CC1(C)C2CC=C(CN3CCCN(CC4=CCC5CC4C5(C)C)CC3)C1C2 [SQ779]
IC50 (HepG2 cell line): 110 µM | SI (selectivity index, ratio of IC50:MIC) (Vero monkey kidney cells): 14.1 | IC50 (Vero monkey kidney cells; [8]): 110 µM | MIC (H37Rv strain of Mtb; [7]): 7.8 µM (≈ 2.88 µg/mL) | MIC (H37Rv strain of Mtb; [10]): 7.8 µM (≈ 2.88 µg/mL)

CCOc1ccccc1CN1CCCN(Cc2ccccc2OCC)CC1 [SQ780, N,N′-Bis(2-Ethoxybenzyl)homopiperazine]
reduction of CFU in spleen (M. tuberculosis H37Rv [2]; 10 mg/kg daily by gavage, 28 days, museum strain of H37Rv): 1 log | activity against M. tuberculosis in vivo (M. tuberculosis H37Rv [2]): efficacious | IC50 (HepG2 cell line): 71 µM | loss of initial body weight (M. tuberculosis H37Rv [1]): 13% | prevention of body weight loss and mortality (M. tuberculosis H37Rv [1]): low efficacy; also recorded: not active | SI (selectivity index, ratio of IC50:MIC) (Vero monkey kidney cells): 18.21 | IC50 (Vero monkey kidney cells; [8]): 71 µM | MIC (H37Rv strain of Mtb; [9]): 1.56 µM (≈ 0.575 µg/mL) | MIC (H37Rv strain of Mtb; [7]): 1.56 µM (≈ 0.575 µg/mL) | MIC (H37Rv strain of Mtb; [10]): 3.9 µM (≈ 1.44 µg/mL) | intracellular activity compared to EMB and INH [3]: equivalent to or better than EMB, but less active than INH | efficacy in macrophages compared to standard drugs (words) [3]: equal or superior to ethambutol

C=C(C)[C@@H]1CC=C(CN2CCCN(CC3=CC[C@@H](C(=C)C)CC3)CC2)CC1 [SQ781]
MIC (H37Rv strain of Mtb; Examples 4 and 5 and screening summary): high MIC

COc1ccccc1CN1CCCN(Cc2ccccc2OC)CC1 [SQ782]
IC50 (HepG2 cell line): 105 µM | MIC (H37Rv strain of Mtb; [9]): 6.25 µM (≈ 2.13 µg/mL) | MIC (H37Rv strain of Mtb; [10]): 7.8 µM (≈ 2.66 µg/mL) | intracellular activity compared to EMB and INH [3]: equivalent to or better than EMB, but less active than INH | efficacy in macrophages compared to standard drugs (words) [3]: equal or superior to ethambutol

c1ccc(COc2ccc(CN3CCN(Cc4ccccc4)CC3)cc2)cc1 [SQ786, N -benzyl-N′-(4-benzyloxy)benzylpiperazine]
activity against M. tuberculosis in vivo (M. tuberculosis H37Rv [2]): promising activity against M.tb in vivo; also recorded: efficacious | IC50 (HepG2 cell line): 54 µM | prevention of body weight loss and mortality (M. tuberculosis H37Rv [1]): prevented body weight loss and delayed mortality | MIC (H37Rv strain of Mtb; [9]): 3.9 µM (≈ 1.45 µg/mL) | MIC (H37Rv strain of Mtb; [10]): 3.13 µM (≈ 1.17 µg/mL) | activity in the Luc assay [4]: not active
